Numbered stars: 1 amine (or outer) side, 2 acyl side, 3 side chain; on linkers, the order of the positions; unused ones are H or OH. Square brackets hold non-standard residues; d marks the D form. Side chains are listed from the residue outwards. Peptide text beside a SMILES is read from it. * marks the point of attachment. C18 diacid = O=C(O)CCCCCCCCCCCCCCCCC(=O)*; γGlu = O=C(O)[C@H](CCC(=O)[*:2])N[*:1]; Ac4c = NC1(C(=O)O)CCC1; AEEA = NCCOCCOCC(=O)O; Aib = CC(C)(N)C(=O)O
Columns and labels:
in vivo = test: in vivo; set-up: species or system c57/BL6 mice; conditions: male, c57/BL6, mouse, sc, 10 nmol/kg
Protocol: The purpose of this assay was to assess the pharmocokinetic profiles of the glucagon derivatives of the invention in mice. The pharmacokinetic profile of glucagon-GLP1 co-agonists was tested in normal male c57/BL6 mice (approximately body weight: 30 grams), in a sparse sampling design with for example 3 mice represented at each time point (for example: t=0.25, 0.5, 1, 3, 6, 10, 24, 30 and 48 hours). The compound was dosed as a single subcutaneous dose of 10 nmol/kg at t=0. The plasma levels of the glucagon-GLP1 co-agonist compounds were determined using an ELISA/LOCI assay (see Example 80 herein). Pharmacokinetic calculations such as half-life (T1/2) maximum concentration (Cmax) and time for maximum concentration (Tmax) of the compounds were determined using the PC based software, Phoenix (WinNonLin version 6.3 from Pharsight, Certara). Samples were analysed for peptide levels using Luminescence Oxygen Channeling Immunoassay (LOCI). The donor beads were coated with streptavidin. Acceptor beads are conjugated with a monoclonal antibody specific to gGlu in the linker (NN454-1F31) while the second monoclonal antibody (1F120) specific for glucagon was biotinylated. Three reactants were combined with the analyte and formed a two-sited immuno-complex. Illumination of the complex released singlet oxygen atoms from the donor beads. They were channeled into the acceptor beads and triggered chemiluminescence which was measured in the EnVision plate reader. The amount of emitted light is proportional to the concentration of peptide. One μL sample/calibrator/control was applied to the wells of 384-well LOCI plates followed by a 15 μL mixture of the antibody-coated acceptor beads (0.5 μg/well) and the biotinylated antibody. The plates were incubated over night at 21-22° C. Following incubation, 30 μL of the streptavidin-coated donorbeads (2 μg/well) was added to each well and incubated for 30 minutes at 21-22° C. The plates were read in an Envision plate reader at 21-22° C. with a filter having a bandwidth of 520-645 nm after excitation by a 680 nm laser. The total measurement time per well was 210 ms including a 70 ms excitation time.

human glucagon receptor = molecular target: T1, human glucagon receptor (Homo sapiens, UniProt P47871); test: Glucagon receptor potency, CRE luciferase reporter gene assay in BHK cells; type: cell-based; conditions: BHK cells expressing human glucagon receptor, read-out: EC50 GlucR
T1 construct: expressed in transfected cells; host or cells: BHK cells (parent BHK570, CRE luciferase clone BHK/KZ10-20-48), clone pLJ6'-4-25
T1 sequence (P47871 26-477): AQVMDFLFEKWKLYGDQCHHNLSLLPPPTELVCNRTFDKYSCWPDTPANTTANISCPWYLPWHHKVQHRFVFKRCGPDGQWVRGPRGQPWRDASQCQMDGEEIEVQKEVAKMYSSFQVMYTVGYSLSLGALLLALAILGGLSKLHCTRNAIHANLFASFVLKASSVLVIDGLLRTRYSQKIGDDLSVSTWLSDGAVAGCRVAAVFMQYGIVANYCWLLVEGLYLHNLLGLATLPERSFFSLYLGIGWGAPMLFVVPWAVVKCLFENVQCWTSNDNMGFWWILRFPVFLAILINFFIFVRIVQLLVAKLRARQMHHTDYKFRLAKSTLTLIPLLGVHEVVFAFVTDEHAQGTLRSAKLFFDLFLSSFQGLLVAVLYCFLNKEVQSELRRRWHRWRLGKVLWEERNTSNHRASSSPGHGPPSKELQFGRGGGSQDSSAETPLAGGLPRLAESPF
In short: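 Stably transfected BHK cells (BHK570 background) expressing human glucagon receptor with CRE-firefly luciferase reporter, 5×10EE3 cells/well in DMEM/HEPES with 2% ovalbumin and 0.2% Pluronic F-68. Compounds 1×10EE-13 to 1×10EE-6 M final, 3 h at 37 °C; luminescence read, EC50 from four-parameter fit, in pM.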

Structure (SMILES)	Cmax (in vivo)	Tmax (in vivo)	half-life (in vivo)	EC50 (human glucagon receptor)
CC(C)C[C@H](NC(=O)[C@H](CC(C)C)NC(=O)[C@H](Cc1c[nH]c2ccccc12)NC(=O)[C@H](CCC(N)=O)NC(=O)[C@@H](NC(=O)[C@H](Cc1ccccc1)NC(=O)[C@H](CCC(=O)O)NC(=O)[C@H](CCC(N)=O)NC(=O)[C@H](C)NC(=O)[C@H](C)NC(=O)[C@H](CCCCN)NC(=O)[C@H](CO)NC(=O)[C@H](CC(=O)O)NC(=O)[C@H](CC(C)C)NC(=O)[C@H](Cc1ccc(O)cc1)NC(=O)[C@H](CCCCN)NC(=O)[C@H](CO)NC(=O)[C@H](CC(C)C)NC(=O)[C@H](CC(=O)O)NC(=O)[C@H](CO)NC(=O)[C@@H](NC(=O)[C@H](Cc1ccccc1)NC(=O)[C@@H](NC(=O)CNC(=O)[C@H](CCC(N)=O)NC(=O)C(C)(C)NC(=O)[C@@H](N)Cc1c[nH]cn1)[C@@H](C)O)[C@@H](C)O)C(C)C)C(=O)N[C@@H](CC(N)=O)C(=O)N[C@@H](CCCCNC(=O)CC[C@H](NC(=O)CC[C@H](NC(=O)COCCOCCNC(=O)COCCOCCNC(=O)CC[C@H](NC(=O)CCCCCCCCCCCCCCCCC(=O)O)C(=O)O)C(=O)O)C(=O)O)C(N)=O [Example 8, N^ε29-[(4S)-4-carboxy-4-[[(4S)-4-carboxy-4-[[2-[2-[2-[[2-[2-[2-[[(4S)-4-carboxy-4-(17-carboxyheptadecanoylamino)butanoyl]amino]ethoxy]ethoxy]acetyl]amino]ethoxy]ethoxy]acetyl]amino]butanoyl]amino]butanoyl]-[Aib2,Leu10,Lys17,Ala18,Glu21,Leu27,Lys29]-Glucagon amide] (H-H[Aib]QGTFTSDLSKYLDSKAAQEFVQWLLNK([γGlu-γGlu-AEEA-AEEA-γGlu-C18 diacid])-NH2; N-terminus assumed)	0.045 µM	3 h	23 h	–
CC(C)C[C@H](NC(=O)[C@H](Cc1ccc(O)cc1)NC(=O)[C@H](CCCCN)NC(=O)[C@H](CO)NC(=O)[C@H](CC(C)C)NC(=O)[C@H](CC(=O)O)NC(=O)[C@H](CO)NC(=O)[C@@H](NC(=O)[C@H](Cc1ccccc1)NC(=O)[C@@H](NC(=O)CNC(=O)[C@H](CCC(N)=O)NC(=O)C1(NC(=O)[C@@H](N)Cc2c[nH]cn2)CCC1)[C@@H](C)O)[C@@H](C)O)C(=O)N[C@@H](CCC(=O)O)C(=O)N[C@@H](CO)C(=O)N[C@@H](CCCNC(=N)N)C(=O)N[C@@H](CCCNC(=N)N)C(=O)N[C@@H](C)C(=O)N[C@@H](CCC(N)=O)C(=O)N[C@@H](CC(=O)O)C(=O)N[C@@H](Cc1ccccc1)C(=O)N[C@H](C(=O)N[C@@H](CCC(N)=O)C(=O)N[C@@H](Cc1c[nH]c2ccccc12)C(=O)N[C@@H](CC(C)C)C(=O)N[C@@H](CC(C)C)C(=O)N[C@@H](CCCCNC(=O)COCCOCCNC(=O)COCCOCCNC(=O)CC[C@H](NC(=O)CC[C@H](NC(=O)CC[C@H](NC(=O)CCCCCCCCCCCCCCCCC(=O)O)C(=O)O)C(=O)O)C(=O)O)C(=O)N[C@H](C(N)=O)[C@@H](C)O)C(C)C [Example 63, N^ε28-[2-[2-[2-[[2-[2-[2-[[(4S)-4-carboxy-4-[[(4S)-4-carboxy-4-[[(4S)-4-carboxy-4-(17-carboxyheptadecanoylamino)butanoyl]amino]butanoyl]amino]butanoyl]amino]ethoxy]ethoxy]acetyl]amino]ethoxy]ethoxy]acetyl]-[Acb2,Leu10,Glu15,Leu27,Lys28]-Glucagon amide] (H-H[Ac4c]QGTFTSDLSKYLESRRAQDFVQWLLK([AEEA-AEEA-γGlu-γGlu-γGlu-C18 diacid])T-NH2; N-terminus assumed)	–	–	–	0.024 nM
CC(C)C[C@H](NC(=O)[C@H](Cc1ccc(O)cc1)NC(=O)[C@H](CCCCN)NC(=O)[C@H](CO)NC(=O)[C@H](CC(C)C)NC(=O)[C@H](CC(=O)O)NC(=O)[C@H](CO)NC(=O)[C@@H](NC(=O)[C@H](Cc1ccccc1)NC(=O)[C@@H](NC(=O)CNC(=O)[C@H](CCC(N)=O)NC(=O)C(C)(C)NC(=O)[C@@H](N)Cc1c[nH]cn1)[C@@H](C)O)[C@@H](C)O)C(=O)N[C@@H](CCC(=O)O)C(=O)N[C@@H](CO)C(=O)N[C@@H](CCCNC(=N)N)C(=O)N[C@@H](CCCNC(=N)N)C(=O)N[C@@H](C)C(=O)N[C@@H](CCCNC(=N)N)C(=O)N[C@@H](CCC(=O)O)C(=O)N[C@@H](Cc1ccccc1)C(=O)N[C@H](C(=O)N[C@@H](CCC(N)=O)C(=O)N[C@@H](Cc1c[nH]c2ccccc12)C(=O)N[C@@H](CC(C)C)C(=O)N[C@@H](CC(C)C)C(=O)N[C@@H](CCCCNC(=O)CC[C@H](NC(=O)CC[C@H](NC(=O)[C@H](CO)NC(=O)[C@H](CCC(=O)O)NC(=O)[C@H](CO)NC(=O)CC[C@H](NC(=O)CC[C@H](NC(=O)CCCCCCCCCCCCCCCCC(=O)O)C(=O)O)C(=O)O)C(=O)O)C(=O)O)C(=O)N[C@H](C(N)=O)[C@@H](C)O)C(C)C [Example 67, N^ε28-[(4S)-4-carboxy-4-[[(4S)-4-carboxy-4-[[(2S)-2-[[(2S)-4-carboxy-2-[[(2S)-2-[[(4S)-4-carboxy-4-[[(4S)-4-carboxy-4-(17-carboxyheptadecanoylamino)butanoyl]amino]butanoyl]amino]-3-hydroxypropanoyl]amino]butanoyl]amino]-3-hydroxypropanoyl]amino]butanoyl]amino]butanoyl]-[Aib2,Leu10,Glu15,Arg20,Glu21,Leu27,Lys28]-Glucagon amide] (H-H[Aib]QGTFTSDLSKYLESRRAREFVQWLLK([γGlu-γGlu-Ser-Glu-Ser-γGlu-γGlu-C18 diacid])T-NH2; N-terminus assumed)	–	–	–	0.01 nM
CC(C)C[C@H](NC(=O)[C@H](Cc1ccc(O)cc1)NC(=O)[C@H](CCCCN)NC(=O)[C@H](CO)NC(=O)[C@H](CC(C)C)NC(=O)[C@H](CC(=O)O)NC(=O)[C@H](CO)NC(=O)[C@@H](NC(=O)[C@H](Cc1ccccc1)NC(=O)[C@@H](NC(=O)CNC(=O)[C@H](CCC(N)=O)NC(=O)C1(NC(=O)[C@@H](N)Cc2c[nH]cn2)CCC1)[C@@H](C)O)[C@@H](C)O)C(=O)N[C@@H](CCC(=O)O)C(=O)N[C@@H](CO)C(=O)N[C@@H](CCCCN)C(=O)N[C@@H](CCCNC(=N)N)C(=O)N[C@@H](C)C(=O)N[C@@H](CCCNC(=N)N)C(=O)N[C@@H](CCC(=O)O)C(=O)N[C@@H](Cc1ccccc1)C(=O)N[C@H](C(=O)N[C@@H](CCC(N)=O)C(=O)N[C@@H](Cc1c[nH]c2ccccc12)C(=O)N[C@@H](CC(C)C)C(=O)N[C@@H](CC(C)C)C(=O)N[C@@H](CCCCNC(=O)CC[C@H](NC(=O)CC[C@H](NC(=O)[C@H](CO)NC(=O)[C@H](CCC(=O)O)NC(=O)[C@H](CO)NC(=O)CC[C@H](NC(=O)CC[C@H](NC(=O)CCCCCCCCCCCCCCCCC(=O)O)C(=O)O)C(=O)O)C(=O)O)C(=O)O)C(=O)N[C@H](C(N)=O)[C@@H](C)O)C(C)C [Example 68, N^ε28-[(4S)-4-carboxy-4-[[(4S)-4-carboxy-4-[[(2S)-2-[[(2S)-4-carboxy-2-[[(2S)-2-[[(4S)-4-carboxy-4-[[(4S)-4-carboxy-4-(17-carboxyheptadecanoylamino)butanoyl]amino]butanoyl]amino]-3-hydroxypropanoyl]amino]butanoyl]amino]-3-hydroxypropanoyl]amino]butanoyl]amino]butanoyl]-[Acb2,Leu10,Glu15,Lys17,Arg20,Glu21,Leu27,Lys28]-Glucagon amide] (H-H[Ac4c]QGTFTSDLSKYLESKRAREFVQWLLK([γGlu-γGlu-Ser-Glu-Ser-γGlu-γGlu-C18 diacid])T-NH2; N-terminus assumed)	–	–	–	0.005 nM
